Experimental data taken from PubChem BioAssay AID330 (DTP/NCI, 2004).
“And” between values parts separate entries of the source, which are not always exact repeats. Identical values can stand only once. Inconclusive results and toxic doses are left out.

System: P388 leukemia ip, CD2F1 mice, survival T/C
Test: NCI In Vivo Anticancer Drug Screen. Data for tumor model P388 Leukemia (intraperitoneal) in CD2F1 (CDF1) mice
Details: endpoint: median survival time, higher = longer survival
Outline: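 Mice carrying the transplanted tumor received test compound or vehicle. Survival was recorded in each group, and the value is the treated-group measurement divided by that of the vehicle-treated control group.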

[1] = dose: 6.25 mg/kg/injection, schedule: Q01DX009 (ip), vehicle: saline with Tween-80
[2] = dose: 25.0 mg/kg/injection, schedule: Q01DX009 (ip), vehicle: saline with Tween-80
[3] = dose: 100.0 mg/kg/injection, schedule: Q01DX009 (ip), vehicle: saline
[4] = dose: 50.0 mg/kg/injection, schedule: Q01DX009 (ip), vehicle: Klucel (hydroxypropylcellulose) (HPC)
[5] = dose: 100.0 mg/kg/injection, schedule: Q01DX009 (ip), vehicle: Klucel (hydroxypropylcellulose) (HPC)
[6] = dose: 200.0 mg/kg/injection, schedule: Q01DX009 (ip), vehicle: Klucel (hydroxypropylcellulose) (HPC)
[7] = dose: 50.0 mg/kg/injection, schedule: Q01DX009 (ip), vehicle: saline with Tween-80
[8] = dose: 100.0 mg/kg/injection, schedule: Q01DX009 (ip), vehicle: saline with Tween-80
[9] = dose: 100.0 mg/kg/injection, schedule: Q04DX003 (ip), vehicle: saline with Tween-80
[10] = dose: 200.0 mg/kg/injection, schedule: Q04DX003 (ip), vehicle: saline with Tween-80
[11] = dose: 400.0 mg/kg/injection, schedule: Q04DX003 (ip), vehicle: saline with Tween-80
[12] = dose: 37.5 mg/kg/injection, schedule: Q04DX003 (ip), vehicle: water
[13] = dose: 60.0 mg/kg/injection, schedule: Q01DX005 (ip), vehicle: saline with Tween-80
[14] = dose: 120.0 mg/kg/injection, schedule: Q01DX005 (ip), vehicle: saline with Tween-80
[15] = dose: 240.0 mg/kg/injection, schedule: Q01DX005 (ip), vehicle: saline with Tween-80
[16] = dose: 50.0 mg/kg/injection, schedule: Q01DX005 (ip), vehicle: Klucel (hydroxypropylcellulose) (HPC)
[17] = dose: 100.0 mg/kg/injection, schedule: Q01DX005 (ip), vehicle: Klucel (hydroxypropylcellulose) (HPC)
[18] = dose: 200.0 mg/kg/injection, schedule: Q01DX005 (ip), vehicle: Klucel (hydroxypropylcellulose) (HPC)
[19] = dose: 200.0 mg/kg/injection, schedule: Q01DX009 (ip), vehicle: saline with Tween-80

## COc1cc(-c2nc(=S)[nH][nH]2)cc(OC)c1OC
dose: 100.0 mg/kg/injection, schedule: Q01DX001 (ip), vehicle: saline with Tween-80
  T/C: 89 % of control
dose: 200.0 mg/kg/injection, schedule: Q01DX001 (ip), vehicle: saline with Tween-80
  T/C: 89 % of control
dose: 400.0 mg/kg/injection, schedule: Q01DX001 (ip), vehicle: saline with Tween-80
  T/C: 96 % of control

## N#CC(C#N)=NO (tested in a mixture with another compound)
[1]
  T/C: 100 % of control
dose: 12.5 mg/kg/injection, schedule: Q01DX009 (ip), vehicle: saline with Tween-80
  T/C: 98 % of control
[2]
  T/C: 100 % of control
[3]
  T/C: 86 % of control

## C=Cc1cc(C)ccc1C(=O)OCCCCCCCCCCCC
[4]
  T/C: 98 % of control
[5]
  T/C: 101 % of control
[6]
  T/C: 98 % of control

## CCn1c(=O)[nH]c(=O)c2conc21
[2]
  T/C: 95 % of control
[7]
  T/C: 104 % of control
[8]
  T/C: 96 % of control

## CC(C)(C)N1CC(C(=O)c2ccccc2)C1c1ccccc1 (stereo unspecified)
dose: 50.0 mg/kg/injection, schedule: Q04DX003 (ip), vehicle: saline with Tween-80
  T/C: 100 % of control
[9]
  T/C: 98 % of control
[10]
  T/C: 97 % of control
[11]
  T/C: 97 % of control

## COc1ccc(CCNC(=O)C2CCCOC2C(Cl)Cl)cc1OC (stereo unspecified)
dose: 50.0 mg/kg/injection, schedule: Q01DX005 (ip), vehicle: saline with Tween-80
  T/C: 97 % of control
dose: 100.0 mg/kg/injection, schedule: Q01DX005 (ip), vehicle: saline with Tween-80
  T/C: 101 % of control
dose: 200.0 mg/kg/injection, schedule: Q01DX005 (ip), vehicle: saline with Tween-80
  T/C: 93 % of control

## O=C1NC(=O)N(c2ccccc2)C(=O)/C1=C/c1ccc2c(c1)CCC2
dose: 60.0 mg/kg/injection, schedule: Q01DX005 (ip), vehicle: Klucel (hydroxypropylcellulose) (HPC)
  T/C: 95 % of control
dose: 120.0 mg/kg/injection, schedule: Q01DX005 (ip), vehicle: Klucel (hydroxypropylcellulose) (HPC)
  T/C: 97 % of control
dose: 240.0 mg/kg/injection, schedule: Q01DX005 (ip), vehicle: Klucel (hydroxypropylcellulose) (HPC)
  T/C: 108 % of control

## CC[C@]1(O)Cc2c(O)c3c(c(O)c2[C@@H](OC2CC(N)C(O)C(C)O2)C1)C(=O)c1c(OC)cccc1C3=O (stereo partly specified)
dose: 1.2 mg/kg/injection, schedule: Q04DX003 (ip), vehicle: water
  T/C: 117 % of control
dose: 1.56 mg/kg/injection, schedule: Q01DX009 (ip), vehicle: water
  T/C: 151 % of control and 169 % of control
dose: 2.4 mg/kg/injection, schedule: Q04DX003 (ip), vehicle: water
  T/C: 119 % of control
dose: 3.13 mg/kg/injection, schedule: Q01DX009 (ip), vehicle: water
  T/C: 156 % of control and 163 % of control
dose: 6.25 mg/kg/injection, schedule: Q01DX009 (ip), vehicle: water
  T/C: 95 % of control
[12]
  T/C: 103 % of control

## [I][Hg][CH]1CCC2CCCC1O2 (stereo unspecified)
dose: 12.5 mg/kg/injection, schedule: Q01DX009 (ip), vehicle: Klucel (hydroxypropylcellulose) (HPC)
  T/C: 105 % of control
dose: 25.0 mg/kg/injection, schedule: Q01DX009 (ip), vehicle: Klucel (hydroxypropylcellulose) (HPC)
  T/C: 102 % of control

## CN(C)c1ccc(/C(O)=C\c2ncnc3ccccc23)cc1
[13]
  T/C: 94 % of control
[14]
  T/C: 94 % of control
[15]
  T/C: 93 % of control

## O=C(O)CSc1ccc(NC(=O)NC2CCCCC2)cc1
[9]
  T/C: 100 % of control
[10]
  T/C: 100 % of control
[11]
  T/C: 100 % of control

## COc1ccc2c(C)cc(N/N=C\c3cccc4ccccc34)nc2c1
[16]
  T/C: 98 % of control
[17]
  T/C: 93 % of control
[18]
  T/C: 106 % of control

## CC(=O)Nc1c(Cl)c(Cl)c2c(c1Cl)C(=O)c1cc(Cl)ccc1-2
[2]
  T/C: 90 % of control
[7]
  T/C: 90 % of control
[8]
  T/C: 90 % of control

## Cc1nc2c(o1)CCCC2
[13]
  T/C: 95 % of control
[14]
  T/C: 90 % of control
[15]
  T/C: 99 % of control

## Cc1cc(=O)c2c(C)cccc2[nH]1
dose: 2.75 mg/kg/injection, schedule: Q01DX009 (ip), vehicle: saline with Tween-80
  T/C: 100 % of control
dose: 4.13 mg/kg/injection, schedule: Q01DX009 (ip), vehicle: saline with Tween-80
  T/C: 118 % of control
[1]
  T/C: 100 % of control
dose: 9.38 mg/kg/injection, schedule: Q01DX009 (ip), vehicle: saline with Tween-80
  T/C: 100 % of control

## CCC(=O)C12CCCC1=NC(=N)N=C2C1=NC(=N)N=C2CCCC21C(=O)CC (stereo unspecified)
dose: 60.0 mg/kg/injection, schedule: Q01DX005 (ip), vehicle: saline
  T/C: 102 % of control
dose: 120.0 mg/kg/injection, schedule: Q01DX005 (ip), vehicle: saline
  T/C: 108 % of control
dose: 240.0 mg/kg/injection, schedule: Q01DX005 (ip), vehicle: saline
  T/C: 88 % of control

## Cn1c(=O)c2nsnc2n(C)c1=O
dose: 50.0 mg/kg/injection, schedule: Q04DX002 (ip), vehicle: Klucel (hydroxypropylcellulose) (HPC)
  T/C: 110 % of control
dose: 100.0 mg/kg/injection, schedule: Q04DX002 (ip), vehicle: Klucel (hydroxypropylcellulose) (HPC)
  T/C: 100 % of control and 110 % of control
dose: 200.0 mg/kg/injection, schedule: Q04DX002 (ip), vehicle: Klucel (hydroxypropylcellulose) (HPC)
  T/C: 107 % of control

## COc1cc2cc3c4cc(OC)c(OC)cc4cc[n+]3c(CCC(=O)O)c2cc1OC
[8]
  T/C: 96 % of control
[19]
  T/C: 96 % of control
dose: 400.0 mg/kg/injection, schedule: Q01DX009 (ip), vehicle: saline with Tween-80
  T/C: 94 % of control

## Cc1cc(C)nc(NS(=O)(=O)c2ccc(NC(=O)c3ccncc3)cc2)n1
[16]
  T/C: 95 % of control
[17]
  T/C: 96 % of control
[18]
  T/C: 91 % of control

## c1cc(C2CO2)ccc1Oc1ccc(C2CO2)cc1 (stereo unspecified)
[4]
  T/C: 103 % of control
[5]
  T/C: 88 % of control
[6]
  T/C: 93 % of control

## CCOC(=O)c1[nH]cnc1/N=N/N(C)CCO
[9]
  T/C: 109 % of control
[10]
  T/C: 113 % of control
[11]
  T/C: 118 % of control

## CCCCCCCC/C=C\C(O)=C1\C(=O)NC(CCCNC(=O)OCc2ccccc2)C1=O (stereo unspecified)
dose: 25.0 mg/kg/injection, schedule: Q04DX002 (ip), vehicle: saline with Tween-80
  T/C: 100 % of control
dose: 50.0 mg/kg/injection, schedule: Q04DX002 (ip), vehicle: saline with Tween-80
  T/C: 100 % of control
dose: 100.0 mg/kg/injection, schedule: Q04DX002 (ip), vehicle: saline with Tween-80
  T/C: 86 % of control
dose: 200.0 mg/kg/injection, schedule: Q04DX002 (ip), vehicle: saline with Tween-80
  T/C: 91 % of control
dose: 400.0 mg/kg/injection, schedule: Q04DX002 (ip), vehicle: saline with Tween-80
  T/C: 103 % of control

## Cc1cc(OC(=O)Nc2cc([N+](=O)[O-])ccc2C)c(C)cc1I
dose: 12.5 mg/kg/injection, schedule: Q01DX009 (ip), vehicle: saline
  T/C: 99 % of control
dose: 25.0 mg/kg/injection, schedule: Q01DX009 (ip), vehicle: saline
  T/C: 97 % of control
dose: 50.0 mg/kg/injection, schedule: Q01DX009 (ip), vehicle: saline
  T/C: 100 % of control and 91 % of control
[3]
  T/C: 92 % of control
dose: 200.0 mg/kg/injection, schedule: Q01DX009 (ip), vehicle: saline
  T/C: 100 % of control

## COc1cccc2c1C(=O)c1c(O)c3c(c(O)c1C2=O)CC(O)(C(C)=O)CC3OC1CC(N)C(O)C(C)O1 (stereo unspecified) (tested in a mixture with another compound)
dose: 4.69 mg/kg/injection, schedule: Q04DX003 (ip), vehicle: water
  T/C: 105 % of control and 110 % of control and 114 % of control
dose: 9.38 mg/kg/injection, schedule: Q04DX003 (ip), vehicle: water
  T/C: 114 % of control and 124 % of control and 112 % of control
dose: 9.4 mg/kg/injection, schedule: Q04DX003 (ip), vehicle: water
  T/C: 118 % of control and 103 % of control
dose: 18.75 mg/kg/injection, schedule: Q04DX003 (ip), vehicle: water
  T/C: 114 % of control and 112 % of control and 116 % of control
[12]
  T/C: 114 % of control and 124 % of control and 118 % of control
dose: 75.0 mg/kg/injection, schedule: Q04DX003 (ip), vehicle: water
  T/C: 109 % of control [middle of 6 runs]
dose: 150.0 mg/kg/injection, schedule: Q04DX003 (ip), vehicle: water
  T/C: 91 % of control and 98 % of control

## CCOC(=O)C1=NN(c2ccccc2)C(C(N)=O)C1 (stereo unspecified)
[13]
  T/C: 100 % of control
[14]
  T/C: 101 % of control
[15]
  T/C: 101 % of control

## CCOC(=O)CSc1nnc(N)s1
[7]
  T/C: 121 % of control
[8]
  T/C: 116 % of control
[19]
  T/C: 98 % of control
